# Where “and” joins values, the source holds several entries; their conditions need not be identical. Equal entries are not always repeated. Entries after “also recorded” stand apart in the source; their conditions may differ.
# Assays:
# [1] = test system: human opioid receptor delta (OPRD); conditions: Pearl, Herrick-Davis et al. 1995; cited from earlier work
# [2] = target: opioid receptor delta (OPRD) (Bos taurus, UniProt F1N083); conditions: printed in the SEM column; literature; cited from earlier work
# [3] = Cold pressor test in healthy volunteers; type: in vivo, human; conditions: 3-60 mg single oral doses versus placebo; hand immersion duration and VAS pain score
# Experimental: Analgesic effect was assessed based on duration of hand immersion in ice water and on visual analog scale (VAS) pain scores upon hand removal from the water bath.
# (§1) Safety and tolerability of noribogaine were tested in the group of volunteers from Example 1. Cold pressor testing was conducted in 1° C. water according to the method of Mitchell et al. (J Pain 5:233-237, 2004) pre-dose, 6, 24, 48, 72 and 216 hours post-dosing. Safety evaluations included clinical monitoring, recording of adverse events (AEs), safety laboratory tests, vital signs, ECG telemetry from −2 h to 6 h after dosing, and 12-lead electrocardiograms (ECGs) up to 216 hours post-dosing.
# human OPRM = human OPRM (Homo sapiens, UniProt P35372); assay: biochemical; parameters: expressed in transfected cells; host or cells: CHO-K1 (cell line provided by Dr. Toll, Torrey Pines Institute); membranes prepared in house
# [4] = Treatment emergent adverse events in opioid-dependent patients, single dose
# [5] = rats; centrally mediated; Baumann, Rothman et al. 2001; cited from earlier work
# [6] = Time to resumption of opioid substitution treatment and withdrawal scales (COWS, SOWS, OOWS); type: in vivo, human
# human OPRK = assay: biochemical; type: binding
# OPRK = OPRK (Homo sapiens, UniProt P41145); assay: biochemical; type: binding; parameters: expressed in transfected cells; host or cells: CHO-K1; conditions: [3H]-U69,593 Binding; This work
# [7] = Safety and tolerability in healthy volunteers (adverse events, ECG, vital signs, oximetry); type: in vivo, human
# Experimental: Pulse oximetry and capnography data were collected continuously using a GE Carescape B650 monitoring system from 2 hours prior to dosing and until six hours after dosing, and thereafter at 12, 24, 48 and 72 hours post-dosing. Additional oximetry data were collected at 120, 168 and 216 hours. Pupillary miosis was assessed by pupillometry. Dark-adapted pupil diameter was measured in triplicate using a Neuroptics PLR-200 pupillometer under standardized light intensity (<5 lux) pre-dose, and at 2, 4, 6, 12, 24, 48, 72, 96, 120, 168 and 216 hours post-dosing.
# as §1
# Chain of human OPRM (P35372 whole entry): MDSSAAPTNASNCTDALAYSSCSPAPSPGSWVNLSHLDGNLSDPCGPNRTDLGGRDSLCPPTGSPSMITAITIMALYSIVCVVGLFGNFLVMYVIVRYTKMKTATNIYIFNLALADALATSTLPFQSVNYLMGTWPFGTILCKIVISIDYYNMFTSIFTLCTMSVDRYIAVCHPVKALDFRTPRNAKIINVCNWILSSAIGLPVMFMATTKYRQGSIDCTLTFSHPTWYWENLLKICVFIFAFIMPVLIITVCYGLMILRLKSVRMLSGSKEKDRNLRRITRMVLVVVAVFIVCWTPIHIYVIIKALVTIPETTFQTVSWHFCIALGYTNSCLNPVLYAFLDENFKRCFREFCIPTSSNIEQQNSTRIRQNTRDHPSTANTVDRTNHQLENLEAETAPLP
# Chain of OPRK (P41145 whole entry): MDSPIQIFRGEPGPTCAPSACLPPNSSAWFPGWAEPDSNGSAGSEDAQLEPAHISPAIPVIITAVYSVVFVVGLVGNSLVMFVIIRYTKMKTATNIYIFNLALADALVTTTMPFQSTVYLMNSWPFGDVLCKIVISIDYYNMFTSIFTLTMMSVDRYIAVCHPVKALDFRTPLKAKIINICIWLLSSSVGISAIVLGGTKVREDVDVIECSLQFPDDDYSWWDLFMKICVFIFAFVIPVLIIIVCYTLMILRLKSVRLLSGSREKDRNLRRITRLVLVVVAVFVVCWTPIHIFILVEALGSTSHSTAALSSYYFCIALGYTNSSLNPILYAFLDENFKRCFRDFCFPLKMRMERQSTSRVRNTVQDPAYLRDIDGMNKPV
# Chain of opioid receptor delta (OPRD) (F1N083 1-372): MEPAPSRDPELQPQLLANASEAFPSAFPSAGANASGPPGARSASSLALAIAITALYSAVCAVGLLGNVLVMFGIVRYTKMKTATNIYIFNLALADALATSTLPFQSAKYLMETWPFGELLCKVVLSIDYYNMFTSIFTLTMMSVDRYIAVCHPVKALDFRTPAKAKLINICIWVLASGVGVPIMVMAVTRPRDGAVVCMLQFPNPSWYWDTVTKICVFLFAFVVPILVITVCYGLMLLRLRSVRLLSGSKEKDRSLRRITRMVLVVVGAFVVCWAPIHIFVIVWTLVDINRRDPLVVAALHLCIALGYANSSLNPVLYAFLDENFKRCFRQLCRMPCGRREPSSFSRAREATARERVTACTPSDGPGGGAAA
smiles,measurement,setting,value
"CC[C@H]1CC2C[C@H]3c4[nH]c5ccc(O)cc5c4CCN(C2)C13 [Noribogaine, noribogaine]",less affine at OPRD than at OPRK,[1],~30 ×
same,Ki,[2],24.7 µM
same,analgesic effect in the cold pressor test,[3],no analgesic effect
same,Efficacy (Emax),human OPRM,9.4%
same,Efficacy (inhibition),human OPRM,−100~ %
same,e-coupling (pKi-pEC50),human OPRM,1.02
same,e-coupling (pKi-pKe),human OPRM,1.10
same,pEC50,human OPRM,4.8
same,right-shift of EC50 of DAMGO and morphine,human OPRM,~1 log
same,Ki,human OPRM; Ke,19 µM and 28 µM
same,Emax,human OPRM; read-out: Efficacy (Emax),10%
same,Catheter Site Infection,[4]; 60 mg noribogaine (N = 6),0
same,Catheter Site Pain,[4]; 60 mg noribogaine (N = 6),0
same,Catheter Site Related Reaction,[4]; 60 mg noribogaine (N = 6),0
same,Cellulitis,[4]; 60 mg noribogaine (N = 6),0
same,Diarrhoea,[4]; 60 mg noribogaine (N = 6),0
same,Diy Mouth,[4]; 60 mg noribogaine (N = 6),0
same,Ear and Labyrinth Disorders,[4]; 60 mg noribogaine (N = 6),0
same,Epistaxis,[4]; 60 mg noribogaine (N = 6),0
same,Euphoric Mood,[4]; 60 mg noribogaine (N = 6),0
same,General Disorders and Administration Site Conditions,[4]; 60 mg noribogaine (N = 6),0
same,Hyperaesthesia,[4]; 60 mg noribogaine (N = 6),0
same,Infections and Infestations,[4]; 60 mg noribogaine (N = 6),0
same,Limb Discomfort,[4]; 60 mg noribogaine (N = 6),0
same,Malaise,[4]; 60 mg noribogaine (N = 6),0
same,Nausea,[4]; 60 mg noribogaine (N = 6),0
same,Oropharyngeal Pain,[4]; 60 mg noribogaine (N = 6),0
same,Pseudoparalysis,[4]; 60 mg noribogaine (N = 6),0
same,"Respiratory, Thoracic and Mediastinal Disorders",[4]; 60 mg noribogaine (N = 6),0
same,Rhinorrhoea,[4]; 60 mg noribogaine (N = 6),0
same,Skin Discomfort,[4]; 60 mg noribogaine (N = 6),0
same,Skin Irritation,[4]; 60 mg noribogaine (N = 6),0
same,Skin and Subcutaneous Tissue Disorders,[4]; 60 mg noribogaine (N = 6),0
same,Somnoience,[4]; 60 mg noribogaine (N = 6),0
same,Tinnitus,[4]; 60 mg noribogaine (N = 6),0
same,Tremor,[4]; 60 mg noribogaine (N = 6),0
same,Urinary Tract Infection,[4]; 60 mg noribogaine (N = 6),0
same,Vomiting,[4]; 60 mg noribogaine (N = 6),0
same,Back Pain,[4]; 120 mg noribogaine (N = 6),0
same,Catheter Site Infection,[4]; 120 mg noribogaine (N = 6),0
same,Catheter Site Related Reaction,[4]; 120 mg noribogaine (N = 6),0
same,Depressed Mood,[4]; 120 mg noribogaine (N = 6),0
same,Dry Eye,[4]; 120 mg noribogaine (N = 6),0
same,Dyspepsia,[4]; 120 mg noribogaine (N = 6),0
same,Euphoric Mood,[4]; 120 mg noribogaine (N = 6),0
same,Limb Discomfort,[4]; 120 mg noribogaine (N = 6),0
same,Malaise,[4]; 120 mg noribogaine (N = 6),0
same,Musculoskeletal and Connective Tissue Disorders,[4]; 120 mg noribogaine (N = 6),0
same,Psychiatric Disorders,[4]; 120 mg noribogaine (N = 6),0
same,Somnoience,[4]; 120 mg noribogaine (N = 6),0
same,Urinary Tract Infection,[4]; 120 mg noribogaine (N = 6),0
same,Catheter Site Infection,[4]; 180 mg noribogaine (N = 6),0
same,Catheter Site Pain,[4]; 180 mg noribogaine (N = 6),0
same,Depressed Mood,[4]; 180 mg noribogaine (N = 6),0
same,Diarrhoea,[4]; 180 mg noribogaine (N = 6),0
same,Dry Eye,[4]; 180 mg noribogaine (N = 6),0
same,Dyspepsia,[4]; 180 mg noribogaine (N = 6),0
same,Ear and Labyrinth Disorders,[4]; 180 mg noribogaine (N = 6),0
same,Epistaxis,[4]; 180 mg noribogaine (N = 6),0
same,Euphoric Mood,[4]; 180 mg noribogaine (N = 6),0
same,Hyperaesthesia,[4]; 180 mg noribogaine (N = 6),0
same,Malaise,[4]; 180 mg noribogaine (N = 6),0
same,Oropharyngeal Pain,[4]; 180 mg noribogaine (N = 6),0
same,Pseudoparalysis,[4]; 180 mg noribogaine (N = 6),0
same,Psychiatric Disorders,[4]; 180 mg noribogaine (N = 6),0
same,"Respiratory, Thoracic and Mediastinal Disorders",[4]; 180 mg noribogaine (N = 6),0
same,Rhinorrhoea,[4]; 180 mg noribogaine (N = 6),0
same,Skin Discomfort,[4]; 180 mg noribogaine (N = 6),0
same,Skin Irritation,[4]; 180 mg noribogaine (N = 6),0
same,Skin and Subcutaneous Tissue Disorders,[4]; 180 mg noribogaine (N = 6),0
same,Somnoience,[4]; 180 mg noribogaine (N = 6),0
same,Tinnitus,[4]; 180 mg noribogaine (N = 6),0
same,Tremor,[4]; 180 mg noribogaine (N = 6),0
same,hallucinatory effects,"[4]; 60, 120 or 180 mg single dose",no hallucinatory effects
same,release of prolactin,[5],triggered the release of prolactin
same,"withdrawal symptoms (COWS, OOWS, SOWS), first six hours after dosing",[6]; 120 mg noribogaine,fewer withdrawal symptoms than the other patients
same,average time to resumption of opioids (OST),[6]; single 120 mg dose,greater than 20 hours
same,"ΔpKi = pKi(OPRK) − pKi(OPRM), OPRK Specificity",human OPRK; from literature (or literature/this work) values,0.4
same,"ΔpKi = pKi(OPRK) − pKi(OPRM), OPRK Specificity",human OPRK; from values of this work,0.3
same,pKi,OPRK,6.1
same,number of adverse events reported,"[7]; 3 mg dose group, two subjects",five
same,"adverse events, Mild",[7]; 3 mg noribogaine,Back pain; also recorded: Dizziness; also recorded: Epistaxis; also recorded: Headache
same,"adverse events, Moderate",[7]; 3 mg noribogaine,Headache
same,number of adverse events reported,"[7]; 10 mg dose group, single subject",one
same,"adverse events, Mild",[7]; 10 mg noribogaine,Headache
same,number of adverse events reported,"[7]; 30 mg dose group, single subject",one
same,"adverse events, Mild",[7]; 30 mg noribogaine,Headache
same,"oximetry, capnography, respiratory rate",[7]; 3-60 mg single oral doses,"no changes in oximetry or capnography, or changes in respiratory rate"
same,vital signs and safety laboratory tests,[7]; 3-60 mg single oral doses,no changes in vital signs or safety laboratory tests of note
same,QTcF values above 500 msec,"[7]; all dose groups, any time",no QTcF values >500 msec
same,single increase in QTcF,"[7]; one subject, 10 mg noribogaine, 24 hours post-dosing",> 60 ms
